Values after ≈ are worked out from the molar mass of the structure shown. Active and inactive are the calls of the source. The calls are words filed in the database; no cut-off is given here.
What was measured:
[1] = system: Staphylococcus aureus; experiment: Antibacterial activity against methicillin resistant Staphylococcus aureus ATCC 33591 assessed as inhibition of bacterial growth incubated for 18 to 24 hrs by broth microdilution method; type: functional; conditions: time 18-24 hrs
[2] = system: Escherichia coli; experiment: Potentiation of rifampicin induced antibacterial activity in Escherichia coli ATCC 25922 assessed as rifampicin MIC at 0.25 ug/ml incubated for 18 to 24 hrs by broth microdilution method (reference value: 2 ug/ml); type: functional; conditions: dose 0.25 µg/ml, time 18-24 hrs
[3] = system: Cell membrane; experiment: Induction of outer membrane permeabilization in Escherichia coli ATCC 25922 assessed as increase in fluorescence at 1 to 16 ug/ml measured after 3 mins by NPN-dye based assay; type: subcellular; conditions: dose 1-16 µg/ml
[4] = system: Escherichia coli; experiment: Bactericidal activity against Escherichia coli ATCC BAA-2523 assessed as reduction in bacterial count at 0.5 to 2 times MIC measured after 2 to 24 hrs by time-kill assay; type: functional, organism-based; conditions: time 2-24 hrs
[5] = system: Escherichia coli; experiment: Potentiation of rifampicin induced antibacterial activity in Escherichia coli ATCC 25922 assessed as rifampicin MIC at 0.125 ug/ml incubated for 18 to 24 hrs by broth microdilution method (reference value: 2 ug/ml); type: functional; conditions: dose 0.125 µg/ml, time 18-24 hrs
[6] = system: Escherichia coli; experiment: Antibacterial activity against Escherichia coli ATCC BAA-2523 infected in ICR mouse assessed as mouse survival at 2 mg/kg, iv administered into tail vein and measured daily for 7 days relative to control; type: functional; conditions: ATCC BAA-2523, 168 h, time 7 day
[7] = system: Escherichia coli; experiment: Potentiation of rifampicin induced antibacterial activity in Escherichia coli ATCC 25922 assessed as rifampicin MIC at 1 ug/ml incubated for 18 to 24 hrs by broth microdilution method (reference value: 2 ug/ml); type: functional; conditions: dose 1 µg/ml, time 18-24 hrs
[8] = system: Escherichia coli; experiment: Potentiation of rifampicin induced antibacterial activity in Escherichia coli ATCC 25922 assessed as rifampicin MIC at 0.008 ug/ml incubated for 18 to 24 hrs by broth microdilution method (reference value: 2 ug/ml); type: functional; conditions: dose 0.008 µg/ml, time 18-24 hrs
[9] = system: Acinetobacter baumannii; experiment: Antibacterial activity against carbapenem resistant Acinetobacter baumannii clinical isolate 19-8 assessed as inhibition of bacterial growth incubated for 18 to 24 hrs by broth microdilution method; type: functional; conditions: time 18-24 hrs
[10] = system: Escherichia coli; experiment: Antibacterial activity against Escherichia coli clinical isolate 19-2 assessed as inhibition of bacterial growth incubated for 18 to 24 hrs by broth microdilution method; type: functional; conditions: time 18-24 hrs
[11] = system: Staphylococcus epidermidis; experiment: Antibacterial activity against methicillin resistant Staphylococcus epidermidis clinical isolate 19-5 assessed as inhibition of bacterial growth incubated for 18 to 24 hrs by broth microdilution method; type: functional; conditions: time 18-24 hrs
[12] = system: Acinetobacter baumannii; experiment: Antibacterial activity against oxacillinase-27 producing Acinetobacter baumannii NCTC 13304 assessed as inhibition of bacterial growth incubated for 18 to 24 hrs by broth microdilution method; type: functional; conditions: time 18-24 hrs
[13] = system: Escherichia coli; experiment: Antibacterial activity against Escherichia coli NCTC 13353 assessed as inhibition of bacterial growth incubated for 18 to 24 hrs by broth microdilution method; type: functional; conditions: time 18-24 hrs
[14] = system: Staphylococcus aureus; experiment: Antibacterial activity against Staphylococcus aureus ATCC 29213 assessed as inhibition of bacterial growth incubated for 18 to 24 hrs by broth microdilution method; type: functional; conditions: time 18-24 hrs
[15] = system: Escherichia coli; experiment: Antibacterial activity against KPC producing Escherichia coli ATCC BAA-2340 assessed as inhibition of bacterial growth incubated for 18 to 24 hrs by broth microdilution method; type: functional; conditions: time 18-24 hrs
[16] = system: Pseudomonas aeruginosa; experiment: Antibacterial activity against Pseudomonas aeruginosa ATCC 27853 assessed as inhibition of bacterial growth incubated for 18 to 24 hrs by broth microdilution method; type: functional; conditions: time 18-24 hrs
[17] = system: Lipopolysaccharide (LPS); experiment: Binding affinity to LIP-1 sensor chip immobilized Escherichia coli LPS assessed as dissociation constant measured for 600 secs by SPR analysis
[18] = system: Escherichia coli; experiment: Potentiation of rifampicin induced antibacterial activity in Escherichia coli ATCC 25922 assessed as rifampicin MIC at 4 ug/ml incubated for 18 to 24 hrs by broth microdilution method (reference value: 2 ug/ml); type: functional; conditions: dose 4 µg/ml, time 18-24 hrs
[19] = system: Klebsiella pneumoniae; experiment: Antibacterial activity against KPC producing Klebsiella pneumoniae ATCC BAA-1705 assessed as inhibition of bacterial growth incubated for 18 to 24 hrs by broth microdilution method; type: functional; conditions: time 18-24 hrs
[20] = Half life in overnight fasted Sprague-Dawley rat at 4 mg/kg, ip measured for 24 hrs by LC-MS/MS analysis; type: ADME, organism-based; conditions: in vivo
[21] = system: Klebsiella pneumoniae; experiment: Antibacterial activity against carbapenem resistant Klebsiella pneumoniae clinical isolate 19-15 assessed as inhibition of bacterial growth incubated for 18 to 24 hrs by broth microdilution method; type: functional; conditions: time 18-24 hrs
[22] = Clearance in overnight fasted Sprague-Dawley rat at 4 mg/kg, ip measured for 24 hrs by LC-MS/MS analysis; type: ADME, organism-based; conditions: in vivo
[23] = system: Escherichia coli; experiment: Potentiation of rifampicin induced antibacterial activity in Escherichia coli ATCC 25922 assessed as rifampicin MIC at 2 ug/ml incubated for 18 to 24 hrs by broth microdilution method (reference value: 2 ug/ml); type: functional; conditions: dose 2 µg/ml, time 18-24 hrs
[24] = system: Escherichia coli; experiment: Potentiation of rifampicin induced antibacterial activity in Escherichia coli ATCC 25922 assessed as rifampicin MIC at 0.03 ug/ml incubated for 18 to 24 hrs by broth microdilution method (reference value: 2 ug/ml); type: functional; conditions: dose 0.03 µg/ml, time 18-24 hrs
[25] = system: Escherichia coli; experiment: Antibacterial activity against Escherichia coli ATCC 25922 assessed as inhibition of bacterial growth incubated for 18 to 24 hrs by broth microdilution method; type: functional; conditions: time 18-24 hrs
[26] = system: Escherichia coli; experiment: Bactericidal activity against Escherichia coli ATCC BAA-2523 assessed as bacterial count at 8 times MIC measured after 24 hrs by time-kill assay; type: functional, organism-based
[27] = system: Klebsiella pneumoniae; experiment: Antibacterial activity against carbapenem resistant Klebsiella pneumoniae clinical isolate 19-17 assessed as inhibition of bacterial growth incubated for 18 to 24 hrs by broth microdilution method; type: functional; conditions: time 18-24 hrs
[28] = AUC (0 to infinity) in overnight fasted Sprague-Dawley rat at 4 mg/kg, ip measured for 24 hrs by LC-MS/MS analysis; type: ADME, organism-based; design: dose 4 mg/kg, time 24 hrs, route ip; conditions: in vivo
[29] = system: Escherichia coli; experiment: Bactericidal activity against Escherichia coli ATCC BAA-2523 assessed as log reduction in bacterial count by measuring reduction in CFU/ml at 4 times MIC measured after 24 hrs by time-kill assay; type: functional
[30] = system: Escherichia coli; experiment: Potentiation of rifampicin induced antibacterial activity in Escherichia coli ATCC 25922 assessed as rifampicin MIC at 0.015 ug/ml incubated for 18 to 24 hrs by broth microdilution method (reference value: 2 ug/ml); type: functional; conditions: dose 0.015 µg/ml, time 18-24 hrs
[31] = Acute toxicity in ICR mouse assessed as animal death at 16 mg/kg, iv administered into tail vein and measured after 0.5 to 1 mins; type: organism-based; conditions: in vivo, time 0.5-1 min
[32] = system: Pseudomonas aeruginosa; experiment: Antibacterial activity against Pseudomonas aeruginosa clinical isolate 19-1 assessed as inhibition of bacterial growth incubated for 18 to 24 hrs by broth microdilution method; type: functional; conditions: time 18-24 hrs
[33] = Plasma protein binding in human at 2 uM incubated for 6 hrs by equilibrium dialysis based LC-MS/MS analysis; type: ADME, cell-free; conditions: read-out: PPB (converted)

**Q.** Which MIC [1] does the source give for CCCCCCC[C@@H](O)CC(=O)N[C@H](CCN)C(=O)N[C@H]1CCNC(=O)[C@H]([C@@H](C)O)NC(=O)[C@H](CCN)NC(=O)[C@H](CCN)NC(=O)[C@H]([C@@H](C)O)NC(=O)[C@@H](Cc2ccccc2)NC(=O)[C@H](CCN)NC1=O here?
**A.** > 64 µg/mL

**Q.** And the MIC [2]?
**A.** ≤ 0.06 µg/mL

**Q.** And the Activity [3]?
**A.** Active

**Q.** And the Activity [4]?
**A.** inactive

**Q.** And the MIC [5]?
**A.** ≤ 0.06 µg/mL

**Q.** What about the survival at 2 mg/kg [6] of the same compound?
**A.** 62.5%

**Q.** And the MIC [7]?
**A.** ≤ 0.06 µg/mL

**Q.** What about the MIC [8] of the same compound?
**A.** 0.5 µg/mL

**Q.** And the MIC [9]?
**A.** 32 µg/mL (≈ 31.4 µM)

**Q.** And the MIC [10]?
**A.** 1 µg/mL (≈ 0.98 µM)

**Q.** And the MIC [11]?
**A.** 64 µg/mL (≈ 62.7 µM)

**Q.** What about the MIC [12] of the same compound?
**A.** 8 µg/mL (≈ 7.84 µM)

**Q.** What about the MIC [13] of the same compound?
**A.** 2 µg/mL (≈ 1.96 µM)

**Q.** What about the MIC [14] of the same compound?
**A.** > 64 µg/mL

**Q.** What about the MIC [15] of the same compound?
**A.** 1 µg/mL (≈ 0.98 µM)

**Q.** What about the MIC [16] of the same compound?
**A.** 0.25 µg/mL (≈ 0.245 µM)

**Q.** And the Kd [17]?
**A.** 480 nM

**Q.** What about the MIC [18] of the same compound?
**A.** ≤ 0.06 µg/mL

**Q.** What about the MIC [19] of the same compound?
**A.** 1 µg/mL (≈ 0.98 µM)

**Q.** And the half-life [20]?
**A.** 3.7 h

**Q.** And the MIC [21]?
**A.** 4 µg/mL (≈ 3.92 µM)

**Q.** And the CL/F [22]?
**A.** 3.8 mL/min/kg

**Q.** What about the MIC [23] of the same compound?
**A.** ≤ 0.06 µg/mL

**Q.** What about the MIC [24] of the same compound?
**A.** ≤ 0.06 µg/mL

**Q.** What about the MIC [25] of the same compound?
**A.** 4 µg/mL (≈ 3.92 µM)

**Q.** What about the Activity [26] of the same compound?
**A.** Below limit of detection

**Q.** And the MIC [27]?
**A.** 8 µg/mL (≈ 7.84 µM)

**Q.** And the AUC(0-inf) [28]?
**A.** 17600 ng·h/mL

**Q.** What about the “log(activity)” value [29] of the same compound?
**A.** 0.6

**Q.** What about the MIC [30] of the same compound?
**A.** 0.125 µg/mL

**Q.** And the Activity [31]?
**A.** Toxic

**Q.** And the MIC [32]?
**A.** 0.5 µg/mL (≈ 0.49 µM)

**Q.** What about the fraction unbound at 6 h, 2 µM [33] of the same compound?
**A.** 0.147
